Measured values taken from EP4420677A1, “VACCINES AGAINST TERT-POSITIVE TUMORS” (Altevax, priority 2023, dated 2024).
Peptide text beside a SMILES is read from it.

How the values were obtained:
[1] = Peptide stability in solution at pH 7.4 (HPLC peak area vs reference); format: physicochemical
[2] = as above; format: physicochemical; details: for Stability of peptides (ratio of the pick area on the indicated day/ pic area of a fresh solution of the same peptide): 7-day incubation in solution at pH7.4, - 20°C; for stability in solution (in words): in solution at physiological pH (pH 7.4)
Procedure: To develop a relevant vaccine, it is necessary to have a proper drug substance stability. To assess stability, the peptides were diluted at à 0,5 mg/mL in water, adjusted at pH 7.4, frozen at -20° C, and analyzed by HPLC (Hypersil GOLD C8 15cm x 4.6mm x 5µm (ThermoFisher) on the indicated day, using an elution buffer CH3CN 15%, TFA 0,1%. The pic area was compared to a reference standard.
Indeed, after 7 days at -20°C, the pic of SEQ ID NO: 4 was reduced by 53%, while SEQ ID NO: 7 was stable (> 95%) for at least 3 months at pH7.4 at -20°C, and at least 7 days at room temperature. Table 4: Stability of peptides after a 7-day incubation period in solution at pH7.4 at different temperature (ratio of the pick area on the indicated day/ pic area of a fresh solution of the same peptide)

[3] = format: binding; details: pH 7.5
Procedure: L-Dopa alone (0.8mg/ml) was polymerized into melanin for 2h at pH 8.5 and 60°C under agitation. The reaction mixture was then filtered on a 10kDa filter, and the retentate containing the synthetic melanin was resuspended at pH 7.5 in phosphate buffer. Peptides were then added (at the weight ratio melanin/peptide of 2) and the mixtures were incubated for 18 hours at room temperature. Tricine-SDS-PAGE analysis was performed as described in Carpentier; 2017 (op. cit.). Briefly, samples (peptide-Mel or peptide alone) were loaded on acrylamide gels. Following electrophoresis, the gels were stained with Coomassie Brilliant Blue R-250 and imaged with the ChemiDoc XRS+ system (Bio-Rad Laboratory), allowing the quantification of the free peptide in the gel. The binding of peptides to melanin was expressed as the ratio: [amount of unbound peptide in samples Peptide-Mel / amount of peptides in control samples containing peptides alone]. […] Table 3: Binding of peptides on synthetic melanin. L-Dopa (0.8mg/ml) underwent an oxidative polymerization at pH 8.5 in aerobic conditions for 2 hours at 60°C. The reaction mixture was then filtered on a 10kDa filter, and the retentate containing the synthetic melanin was resuspended at pH 7.5. […] The percentage of peptides that bound to melanin was then quantified with SPS-page analysis

[4] = Filterability and precipitation of the mixture peptide + melanin; format: physicochemical; details: mixture peptide + melanine in isotonic saline
Excerpt: Filterability of a medical formulation on a 0.2µ filter is important to achieve a sterile solution.

[5] = 7-day incubation in solution at pH7.4, 4°C
[6] = 7-day incubation in solution at pH7.4, Room temperature

CC[C@H](C)[C@H](NC(=O)CNC(=O)[C@@H](NC(=O)[C@H](CO)NC(=O)[C@H](CCC(N)=O)NC(=O)[C@H](CC(C)C)NC(=O)[C@H](CCCCN)NC(=O)[C@H](CO)NC(=O)[C@H](Cc1c[nH]c2ccccc12)NC(=O)[C@@H](NC(=O)[C@H](CO)NC(=O)[C@@H](N)CCCCN)C(C)C)[C@@H](C)CC)C(=O)N[C@@H](CCCNC(=N)N)C(=O)N[C@@H](CCC(N)=O)C(=O)N[C@@H](Cc1c[nH]cn1)C(=O)O [SEQ ID NO: 1, KSVWSKLQSIGIRQH, reference compound]
Stability of peptides (ratio of the pick area on the indicated day/ pic area of a fresh solution of the same peptide) [1, 5]: 98%
Stability of peptides (ratio of the pick area on the indicated day/ pic area of a fresh solution of the same peptide) [1, 6]: 92%
Stability of peptides (ratio of the pick area on the indicated day/ pic area of a fresh solution of the same peptide) [2]: 100%

CC[C@H](C)[C@H](NC(=O)CNC(=O)[C@@H](NC(=O)[C@H](CO)NC(=O)[C@H](CCC(N)=O)NC(=O)[C@H](CC(C)C)NC(=O)[C@H](CCCCN)NC(=O)[C@H](CO)NC(=O)[C@H](Cc1c[nH]c2ccccc12)NC(=O)[C@@H](NC(=O)[C@H](CO)NC(=O)[C@H](CCCCN)NC(=O)[C@@H](N)CS)C(C)C)[C@@H](C)CC)C(=O)N[C@@H](CCCNC(=N)N)C(=O)N[C@@H](CCC(N)=O)C(=O)N[C@@H](Cc1c[nH]cn1)C(=O)O [SEQ ID NO: 4, CKSVWSKLQSIGIRQH] (H-CKSVWSKLQSIGIRQH-OH)
percentage of peptides that bound to melanin [3]: 59%
Stability of peptides (ratio of the pick area on the indicated day/ pic area of a fresh solution of the same peptide) [2]: 47%
stability in solution (in words) [2]: highly unstable

CC[C@H](C)[C@H](NC(=O)CNC(=O)[C@@H](NC(=O)[C@H](CO)NC(=O)[C@H](CCC(N)=O)NC(=O)[C@H](CC(C)C)NC(=O)[C@H](CCCCN)NC(=O)[C@H](CO)NC(=O)[C@H](Cc1c[nH]c2ccccc12)NC(=O)[C@@H](NC(=O)[C@H](CO)NC(=O)[C@H](CCCCN)NC(=O)[C@@H](N)CCSC)C(C)C)[C@@H](C)CC)C(=O)N[C@@H](CCCNC(=N)N)C(=O)N[C@@H](CCC(N)=O)C(=O)N[C@@H](Cc1c[nH]cn1)C(=O)O [SEQ ID NO: 5, MKSVWSKLQSIGIRQH] (H-MKSVWSKLQSIGIRQH-OH)
Stability of peptides (ratio of the pick area on the indicated day/ pic area of a fresh solution of the same peptide) [1, 5]: 25%
Stability of peptides (ratio of the pick area on the indicated day/ pic area of a fresh solution of the same peptide) [1, 6]: 3%
Stability of peptides (ratio of the pick area on the indicated day/ pic area of a fresh solution of the same peptide) [2]: 23%
stability in solution (in words) [2]: highly unstable

CC[C@H](C)[C@H](NC(=O)CNC(=O)[C@@H](NC(=O)[C@H](CO)NC(=O)[C@H](CCC(N)=O)NC(=O)[C@H](CC(C)C)NC(=O)[C@H](CCCCN)NC(=O)[C@H](CO)NC(=O)[C@H](Cc1c[nH]c2ccccc12)NC(=O)[C@@H](NC(=O)[C@H](CO)NC(=O)[C@H](CCCCN)NC(=O)[C@@H](N)CO)C(C)C)[C@@H](C)CC)C(=O)N[C@@H](CCCNC(=N)N)C(=O)N[C@@H](CCC(N)=O)C(=O)N[C@@H](Cc1c[nH]cn1)C(=O)O [SEQ ID NO: 7, SKSVWSKLQSIGIRQH] (H-SKSVWSKLQSIGIRQH-OH)
time remaining in suspension [4]: more than 18 hours
Stability of peptides (ratio of the pick area on the indicated day/ pic area of a fresh solution of the same peptide) [1, 5]: 100%
Stability of peptides (ratio of the pick area on the indicated day/ pic area of a fresh solution of the same peptide) [1, 6]: 100%
Stability of peptides (ratio of the pick area on the indicated day/ pic area of a fresh solution of the same peptide) [2]: 100%
stable (remaining peptide) ([2]; at least 3 months at pH7.4 at -20°C): > 95%
stable (remaining peptide) ([2]; at least 7 days at room temperature, pH7.4): > 95%
stability in solution (in words) [2]: very stable
